Assay results from patent publication US10028970B2, “Composition comprising cashew apple extract” (NATUREX, priority 2011, dated 2018).

Assay: Thermal degradation kinetics of CAE in water at 100° C. (HPLC)
Format: physicochemical
Settings: CAE 50 g/L in deionised water
Protocol: The thermal degradation kinetics of CAE in water was investigated at 100° C. CAE was dissolved in deionised water at the concentration of 50 g/L and the solution was well homogenized. Volumes of 4 ml of this solution were placed in glass tubes, sealed, and placed in a mineral oil bath at 100° C. At predetermined intervals: 0, 10, 20, 30, 45, 60, 90, and 120 min, sample tubes were removed from the mineral oil bath and rapidly cooled in ice. For the analysis, 1 ml of each sample was mixed with 4 ml of HPLC grade methanol, homogenized, and filtrated on 0.45 μm HPLC filter. Then, 20 μL of the solution was analyzed in HPLC. The phytochemical composition of the samples was measured by reversed phase liquid chromatography using a C-18 column (ACE, 250×4.6 mm, 5 μm) at 280 nm. The areas under peak of the major components of CAE were measured in the different samples representing different time points of at 100° C.

O=C(/C=C/c1ccccc1)O[C@@H]1O[C@H](CO)[C@@H](O)[C@H](O)[C@H]1O (relative stereo) [1-O-trans-cinnamoyl-beta-D-glucoside, 1-O-trans-cinnamoyl-beta-D-glucopyranose]
incubation time after which the amount in the extract was divided by 2: 30 min
amount remaining in the extract after 120 min of incubation (120 min): almost completely disappeared from the extract
